What was measured:
[1] = test system: HCT116 cell line; experiment: MTS cell viability assay (CellTiter 96), HCT116; type: cell-based, human; details: for IC50: HCT116, 48 h exposure, MTS, mean ± SEM; for SI (selectivity index): IC50 of fibroblasts / IC50 of HCT116
Description: (§1) The in vitro cytotoxic potential of complexes Fe1 and Fe2 was evaluated through the CellTiter 96®Aqueous Non-Radioactive Cell Proliferation Assay using MTS, as described in Section 3.3.2 [26].
(§2) The antiproliferative activity of both complexes was evaluated through the exposure of the A2780 cell line to 0.01–50 µM of complexes Fe1 or Fe2 (Figure 3A) and of the HCT116 cell line to 0.1–50 µM of complexes Fe1 or Fe2 (Figure 3B) for 48 h.
(§3) Human colorectal carcinoma (HCT116) and normal dermal fibroblasts cell lines were grown in Dulbecco’s modified Eagle’s medium (DMEM) (Invitrogen Corp., Grand Island, NY, USA) supplemented with 10% (v/v) foetal bovine serum and 1% (v/v) antibiotic/antimycotic solution (Invitrogen Corp.). Human ovarian carcinoma (A2780) cell line was cultivated using the Roswell Park Memorial Institute (RPMI) medium supplemented as DMEM. The supplemented medium is named complete medium. Cells were grown in an incubator with a humidified atmosphere at 5% (v/v) CO2 and 37 °C. All cell lines were purchase from ATCC (ATCC®, American Type Culture Collection, Washington, DC, USA).
(§4) The evaluation of the cytotoxic potential of the complexes Fe1 and Fe2 was obtained through the measurement in vitro of the antiproliferative activity of these complexes. Cells were plated in 96-well plates at 7.5 × 10^4 cells/mL and incubated at 37 °C with 5% (v/v) CO2. After 24 h, the culture medium was replaced with a fresh medium containing 0.01–100 µM of complexes Fe1 or Fe2 and incubated for 48 h, as described previously. DMSO 0.1% (v/v) was used as the vehicle control for all cell lines. The fibroblasts cell line was used as a control of cytotoxicity of the complexes for healthy cells. Cisplatin was used as a positive control (a common chemotherapeutic agent). Cell viability was evaluated using CellTiter 96®Aqueous Non-Radioactive Cell Proliferation Assay (Promega, Madison, WI, USA) using 3-(4,5-dimethylthiazol-2-yl)-5-(3-carboxymethoxyphenyl)-2-(4-sulfophenyl)-2H-tetrazolium, inner salt (MTS), as described previously. In metabolically active cells, enzymes present in the mitochondria catalyse a reaction in which NADPH/ NADH is produced. These enzymes can reduce the MTS reagent into a brownish-coloured product called formazan, which can be quantified by measuring the absorbance at 490 nm. The quantity of product produced is directly proportional to the number of viable cells in culture. The amount of formazan product formed was measured with a Bio-Rad Microplate Reader Model 680 (Bio-Rad, Hercules, CA, USA). Half maximal inhibitory concentration (IC50) was calculated using GraphPad Prism 6 (GraphPad Software, La Jolla, CA, USA). Selectivity index (SI) was calculated for both tumour cell lines by dividing the IC50 of fibroblasts with the IC50 of HCT116 or A2780 for complexes Fe1 and Fe2.

[2] = test system: A2780 cell line; experiment: MTS cell viability assay (CellTiter 96), A2780; type: cell-based, human; details: for IC50: A2780, 48 h exposure, MTS, mean ± SEM; for SI (selectivity index): IC50 of fibroblasts / IC50 of A2780
Description: as §1, §2, §3, §4

[3] = test system: zebrafish embryos; experiment: Fish embryo acute toxicity test (FET); type: in vivo, zebrafish (Danio rerio); details: for LC50: early blastula stage up to 72 hpf, Logit and Probit analyses; for LOEC (lowest observed effect concentration) / NOEC (no observed effect concentration): up to 72 hpf
Description: In addition, the mortality distribution obtained for each compound allowed the accurate estimation of the LC50 (Figure 7). […] For this reason, Fe1 and Fe2 compounds were analysed in vivo using colorectal HCT116 zebrafish xenograft.
The wild-type zebrafish were housed in a water recirculation system under controlled physicochemical conditions of temperature (26 ± 2 °C), pH (7–7.5), and conductivity (400–600 µS/cm). The fertilised eggs were collected after natural spawning and housed in Petri dishes until their use. Next, eggs were exposed to Fe1 and Fe2 and dissolved in water containing 1% DMSO. Then, toxicological analyses were carried out based on the approved standard OECD TG 236—fish embryo toxicity test (FET), with modifications. For the study, four replicates of 12 embryos were distributed for each of the 5 concentrations tested for compounds; for Fe1, the concentrations used were 15, 20, 25, 30, 35 µM), and for Fe2 were 1, 5, 10, 15, 20 µM. The performed zebrafish toxicity experiments were approved by the animal care and use committee of the University of Santiago de Compostela and the standard protocols of Spain (CEEA-LU-003 and […]). The toxicity results data were analysed by probit analysis using ToxRat Software (ToxRat Solutions. 2003. ToxRat. Software for statistical analysis of bioassays. Alsdorf, Germany).

[4] = test system: normal dermal fibroblasts; experiment: MTS cell viability assay (CellTiter 96), fibroblasts; type: cell-based, human; details: 48 h exposure, mean ± SEM
Description: The antiproliferative effect of complexes Fe1 and Fe2 was also tested on a nontumor cell line, fibroblasts, to evaluate their antiproliferative activity in healthy cells. For that, a range of concentrations from 0.01 to 100 µM of both complexes was used (Figure 4). As previously observed for the tumour cell lines, a concentration-dependent reduction of cell viability is observed (Figure 3 and Figure 4).
Human colorectal carcinoma (HCT116) and normal dermal fibroblasts cell lines were grown in Dulbecco’s modified Eagle’s medium (DMEM) (Invitrogen Corp., Grand Island, NY, USA) supplemented with 10% (v/v) foetal bovine serum and 1% (v/v) antibiotic/antimycotic solution (Invitrogen Corp.). […]
The evaluation of the cytotoxic potential of the complexes Fe1 and Fe2 was obtained through the measurement in vitro of the antiproliferative activity of these complexes. […] Cell viability was evaluated using CellTiter 96®Aqueous Non-Radioactive Cell Proliferation Assay (Promega, Madison, WI, USA) using 3-(4,5-dimethylthiazol-2-yl)-5-(3-carboxymethoxyphenyl)-2-(4-sulfophenyl)-2H-tetrazolium, inner salt (MTS), as described previously. […] These enzymes can reduce the MTS reagent into a brownish-coloured product called formazan, which can be quantified by measuring the absorbance at 490 nm. The quantity of product produced is directly proportional to the number of viable cells in culture. […]

[5] = Stability in PBS by UV-visible spectrum; type: physicochemical; details: PBS pH 7.0, room temperature, aerobic, over 48 h
Description: The stability of complexes Fe1 and Fe2 was evaluated over 48 h at room temperature by monitoring their UV–visible spectrum in PBS (pH 7.0) (Figure 2). […] Based on our previous works with Ru carbonyl metal complexes, we speculate that release of CO ligand, 2 in the case of Fe1 and 1 in the case of Fe2, may occur in the first 30 min, as the decrease profile is more pronounced for Fe1 with two CO ligands (Figure 2B,D). We could also speculate that, in the case of Fe1, both CO ligands might be replaced by water molecules, maintaining the previous charge on this novel Fe species (cationic), while in Fe2, the release of the CO ligand and replacement by water molecule would maintain this new Fe species neutral.
Complexes Fe1 and Fe2 solutions were prepared in 10 mM phosphate-buffered solution (PBS) containing 0.15 M NaCl (pH 7). All spectra were recorded for 48 h on a recorded with a Varian-Cary 100 Bio spectrophotometer (Agilent, Santa Clara, CA, USA), using a quartz cuvette with 1 cm path length in a wavelength range from 220 to 500 nm.

[6] = Solubility in buffer aqueous media; type: physicochemical; details: fully soluble on adding DMSO (final not above 0.1% v/v)
[7] = test system: human HCT116 colorectal cancer cells; experiment: Zebrafish embryo xenograft assay; type: in vivo; details: compared with control
Description: HCT116 human colorectal cancer cell line was incubated in standard conditions in a humidified incubator at 37 °C and 5% CO2 until a confluence of 70–80% was reached. Afterwards, the cells were concentrated and labelled with DiI and injected in the circulation (Duct of Cuvier) of 48 hpf zebrafish embryos in order to assay the proliferation in vivo of the cells exposed to Fe1 and Fe2. Fe1 and Fe2 (5 μM and 0.25 μM, respectively) were dissolved in the water at 1-day post injection (dpi) to allow the recovery of the embryos from the injection in the first 24 h and maintained until the end of the experiment at 3 dpi. Imaging of the embryos was performed at 1 dpi and 3 dpi to quantify the fluorescence and area of the cells in the caudal hematopoietic tissue (CHT) in the tail of the embryos, where cells invade and grow, and measure their proliferation over time to assess the inhibitory effect of the compounds assayed over the cells.
The results were calculated based on a comparison between 3 dpi and 1 dpi time points and normalised at 3 dpi against control conditions due to the nature of the lipophilic dye in the proliferation of the cells. […]
At 1 dpi, the embryos were imaged, and the compound (Fe1 and Fe2) was added to the water. […] Imaging of the embryos was performed using a fluorescence stereomicroscope (AZ-100, Nikon, Tokyo, Japan). […]

Row | Compound | IC50 [1] [µM] | IC50 [2] [µM] | LC50 [3] [µM] | LOEC (lowest observed effect concentration) [3] [µM] | NOEC (no observed effect concentration) [3] [µM] | IC50 [4] [µM] | stability (360 nm band) [5] | SI (selectivity index) [1] | solubility [6] | SI (selectivity index) [2] | proliferation of HCT116 cells in vivo ([7]; 0.25 μM dissolved in the water from 1 dpi to 3 dpi) | proliferation of HCT116 cells in vivo ([7]; 5 μM dissolved in the water from 1 dpi to 3 dpi)
1 | N.N.[Cl][Pt][Cl] [Cisplatin, reference compound] | 15.6 ± 5.3 | 1.9 ± 0.2 |  |  |  |  |  |  |  |  |  | 
2 | Cp(IMes)Fe(CO)I [Fe2] | 3.26 ± 0.1 | 2.91 ± 0.51 | 6.86 | 5 | 1 | 42 ± 0.75 | a lower decrease of the 360 nm peak intensity occurs within the first 30 min | 12.9 | insoluble in buffer aqueous media | 14.4 | reduce the proliferation of human HCT116 colorectal cancer cells in vivo | 
3 | [Cp(IMes)Fe(CO)2]I [Fe1] | 0.87 ± 0.09 | 1.34 ± 0.25 | 24.6 | 20 | 15 | 23.61 ± 0.14 | rapidly transformed into a new Fe species that is then stable, at least, until 24 h | 27.1 | insoluble in buffer aqueous media | 17.7 |  | reduce the proliferation of human HCT116 colorectal cancer cells in vivo

Source: article PMC8470334, “N-Heterocyclic Carbene Iron Complexes as Anticancer Agents: In Vitro and In Vivo Biological Studies” (Molecules, 2021)
